Reference: patent US6649762B1, “Crystal modification C of 8-cyano-1-cyclopropyl-7-(1S,6S-2,8-diazabicyclo-[4.3.0]nonan-8-yl)-6-fluoro-1,4-dihyro-4-oxo-3-quinoline carboxylic” (Bayer Aktiengesellschaft, priority 1999, dated 2003)

Assays:
[1] = storage stability of the crystal modification; format: physicochemical; conditions: prolonged storage
pathogenic bacteria = assay: activity against pathogenic bacteria; conditions: area of human or veterinary medicine
[2] = hygroscopicity of the solid; format: physicochemical; conditions: powder obtained by the known preparation process

Compound: N#Cc1c(N2C[C@@H]3CCCN[C@@H]3C2)c(F)cc2c(=O)c(C(=O)O)cn(C3CC3)c12 [CCDC of the crystal modification C, 8-cyano-1-cyclopropyl-7-(1S,6S-2,8-diazabicyclo[4.3.0]nonan-8-yl)-6-fluoro-1,4-dihydro-4-oxo-3-quinolinecarboxylic acid]
- stability of the crystal modification (change into another crystal modification or the amorphous form) [1]: does not change into another crystal modification or the amorphous form
- activity against pathogenic bacteria (pathogenic bacteria): highly active

Compound: N#Cc1c(N2C[C@@H]3CCCN[C@@H]3C2)c(F)cc2c(=O)c(C(=O)O)cn(C3CC3)c12 [partially amorphous powder, 8-cyano-1-cyclopropyl-7-(1S,6S-2,8-diazabicyclo[4.3.0]nonan-8-yl)-6-fluoro-1,4-dihydro-4-oxo-3-quinolinecarboxylic acid]
- hygroscopicity [2]: hygroscopic
